Source: paper PMC11494503, “Next Generation SICLOPPS Screening for the Identification of Inhibitors of the HIF-1α/HIF-1β Protein–Protein Interaction” (ACS Chemical Biology, 2024)
Read-outs that look alike come from different tables or passages of the source. Peptide text beside a SMILES is read from it.

What was measured:
[1] = test system: HIF-1α/HIF-1β PPI; experiment: SICLOPPS CX5 library screen in HIF-1 RTHS with biopanning and NGS; type: cell-based, E. coli; conditions: after 2 rounds of biopanning
Excerpt: The HIF-1 RTHS links the PPI between HIF-1α-P22 and HIF-1β-434 fusion proteins to the life/death of the host E. coli via three reporter genes.[14] Interaction of HIF-1α and HIF-1β results in the formation of a chimeric P22/434 repressor that inhibits the transcription of the KanR and His3 reporter genes, which are required for cell survival in selection media (Figure S1). Disruption of the HIF-1α/HIF-1β PPI also disrupts the repressor complex, leading to transcription of the reporter genes and survival of colonies that contain cyclic peptide HIF-1 inhibitors. Thus, cells containing cyclic peptide inhibitors of the targeted PPI will survive and grow on selective media, whereas all others will not. The HIF-1 RTHS cells were transformed with the sequenced CX5 library and, after recovery, plated onto a selective medium. After incubation for 48 h at 37 °C, selection plates were scraped to collect all colonies, and the SICLOPPS plasmids were isolated. The extein coding region of these plasmids was subsequently sequenced by NGS. We observed sequence enrichment after one round of biopanning, with the three sequences (CAAAAA, CRLYVL, and CVTYVL) making up 7.8% of the entire library with over 10 000 copies each per 1 M reads (Figure 2a). The prevalence of the control sequence was reduced by 44% from 80 000 to 45 000 copies per million reads, which further indicated enrichment of cyclic peptide inhibitors of the HIF-1α/HIF-1β PPI in the RTHS. The next 47 sequences were present with over 1000 copies after round 1 which made up a further 15% of the library (Figure 2a). HIF-1 RTHS cells were transformed with the SICLOPPS plasmid library isolated from round 1 of biopanning, for a second round of selection. After incubation, all colonies were scraped, and plasmids were isolated and sequenced by NGS as before. We observed further sequence enrichment after the second round of biopanning, evident by the shift of the library population from the mostly low-prevalence sequences in both the naïve library and after one round of biopanning to mostly highly prevalent cyclic peptide sequences after round 2 of biopanning (Figure 2b). With 159 000 copies per 1 M reads, the most prevalent sequence is CRTYIL, while the next 14 sequences were all present with more than 10 000 copies per 1 M. The top 15 sequences make up over 50% of the entire library. The CA5 internal standard dropped to 0.5%, providing further evidence of enrichment of active inhibitors during biopanning.
All reagents were purchased from Fisher Scientific or Sigma Aldrich UK unless specified otherwise.
Restriction enzymes and microbiology reagents were purchased from New England Biolabs Inc., FisherScientific (UK) or Promega (UK) and were used as directed by the manufacturer. Primers and oligonucleotides were synthesised by Integrated DNA Technologies (UK). DNA sequencing was carried out by Eurofins MWG Operon (Germany).
Construction of the RTHS and SICLOPPS library was conducted as previously described.2 […]
Electrocompetent RTHS-HIF 1 cells2 were transformed with 100 ng freshly prepared SICLOPPS CX5 library, prepared as previously detailed.3 The recovery mixture was plated on 6 square plates containing M9 minimal media supplemented with 50 µg/mL ampicillin, 25 µg/mL Spectinomycin, 50 µg/mL kanamycin, 35 µg/mL chloramphenicol, 100 µM IPTG, 6.5 µM L-arabinose and 7.5 mM 3-amino triazole and incubate at 37 °C for 48 h. To ensure sufficie transformation efficiency, 10 µL transformation mixture was subjected to 10-fold serial dilutions plated on LB-agar with 35 µg/m […]
Chloramphenicol. […] All cells were […]
then harvested by resuspending the colonies in a total of 50 mL LB medium and transferring to a centrifuge tube and centrifugation for 30 min at 4000 rpm and 4°C. The cell pellet was then subjected to maxi prep (GeneJET Plasmid Maxiprep kit Thermo Scientific) and the resulting plasmid library was used for the next round of biopanning and NGS. The second round of bio panning was […]

[2] = target: T1, PAS-B domain of HIF-1α (Homo sapiens, UniProt Q16665); experiment: Microscale thermophoresis (MST) binding to HIF-1α PAS-B domain
T1 construct: The HIF-1a PAS-B domain was expressed and purified as previously described; made in house
T1 sequence (Q16665 228-298 limits assumed): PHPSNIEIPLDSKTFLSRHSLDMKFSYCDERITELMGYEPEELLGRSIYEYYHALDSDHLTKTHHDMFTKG
Method: We synthesized the top 20 cyclic peptides from the ranking approach. We also synthesized cyclo-CLLFVY as a control.[14] These compounds were assessed for binding to the PAS-B domain of HIF-1α by microscale thermophoresis (MST). […]

[3] = MST, HIF-1α PAS-B, mean (n = 3) ± SEM, read-out: KD

Compound | Enrichment after pan 2 [%] [1] [%] | Kd [2, 3] [µM] | Kd [2] [µM] | fold better KD than the control peptide cyclo-CLLFVY in the same assay ([2]; MST, HIF-1α) [fold]
CC(C)C[C@@H]1NC(=O)[C@H](CC(N)=O)NC(=O)[C@H](CC(C)C)NC(=O)[C@H](CC(C)C)NC(=O)[C@H](Cc2ccccc2)NC(=O)[C@H](CS)NC1=O [CFLLNL, cyclo-CFLLNL] (cyclo(CFLLNL)) | 1.509 | 103 ± 8 | – | –
CC(C)C[C@@H]1NC(=O)[C@H](CCCCN)NC(=O)[C@H](CS)NC(=O)[C@H](CC(C)C)NC(=O)[C@H](CC(C)C)NC(=O)[C@H](Cc2ccccc2)NC1=O [CKLFLL] (cyclo(CKLFLL)) | 0.6884 | – | – | –
CC(C)C[C@@H]1NC(=O)[C@H](CC(C)C)NC(=O)[C@H](Cc2ccccc2)NC(=O)[C@H](C(C)C)NC(=O)[C@H](CCCCN)NC(=O)[C@H](CS)NC1=O [CKVFLL, cyclo-CKVFLL] (cyclo(CKVFLL)) | 3.064 | 42 ± 12 | – | –
CC(C)C[C@@H]1NC(=O)[C@H](CS)NC(=O)[C@H](Cc2ccccc2)NC(=O)[C@H](CC(C)C)NC(=O)[C@H](CC(C)C)NC(=O)[C@H](CS)NC1=O [CLLFCL, cyclo-CLLFCL] (cyclo(CLCLLF)) | 1.071 | – | 0.47 ± 0.01 | > 80
CC[C@H](C)[C@@H]1NC(=O)[C@H](Cc2ccccc2)NC(=O)[C@H]([C@@H](C)CC)NC(=O)[C@H](CCCNC(=N)N)NC(=O)[C@H](CS)NC(=O)[C@H](CCSC)NC1=O [CRIFIM, cyclo-CRIFIM] (cyclo(CRIFIM)) | 1.319 | 26 ± 1 | – | –
CC[C@H](C)[C@@H]1NC(=O)[C@H](CC(C)C)NC(=O)[C@H]([C@@H](C)CC)NC(=O)[C@H](CCCNC(=N)N)NC(=O)[C@H](CS)NC(=O)[C@H](CC(C)C)NC1=O [CRILIL, cyclo-CRILIL] (cyclo(CRILIL)) | 2.819 | 20 ± 1 | – | –
CC[C@H](C)[C@@H]1NC(=O)[C@H](CC(C)C)NC(=O)[C@H](CCCNC(=N)N)NC(=O)[C@H](CS)NC(=O)[C@H](C(C)C)NC(=O)[C@H]([C@@H](C)CC)NC1=O [CRLIIV, cyclo-CRLIIV] (cyclo(CRLIIV)) | 1.138 | 28 ± 2 | – | –
CC[C@H](C)[C@@H]1NC(=O)[C@H](CC(C)C)NC(=O)[C@H](CC(C)C)NC(=O)[C@H](CCCNC(=N)N)NC(=O)[C@H](CS)NC(=O)[C@H](CC(C)C)NC1=O [CRLLIL, cyclo-CRLLIL] (cyclo(CRLLIL)) | 1.196 | 20 ± 1 | – | –
CC[C@H](C)[C@@H]1NC(=O)[C@H](Cc2ccc(O)cc2)NC(=O)[C@H](CC(C)C)NC(=O)[C@H](CCCNC(=N)N)NC(=O)[C@H](CS)NC(=O)[C@H](C(C)C)NC1=O [CRLYIV, cyclo-CRLYIV] (cyclo(CRLYIV)) | 2.142 | 122 ± 4 | – | –
CC(C)C[C@@H]1NC(=O)[C@H](CCCNC(=N)N)NC(=O)[C@H](CS)NC(=O)[C@H](CC(C)C)NC(=O)[C@H](C(C)C)NC(=O)[C@H](Cc2ccc(O)cc2)NC1=O [CRLYVL, cyclo-CRLYVL] (cyclo(CRLYVL)) | 8.962 | 150 ± 40 | – | –
CC[C@H](C)[C@@H]1NC(=O)[C@H](Cc2ccccc2)NC(=O)[C@H](CCSC)NC(=O)[C@H](CCCNC(=N)N)NC(=O)[C@H](CS)NC(=O)[C@H](CC(C)C)NC1=O [CRMFIL, cyclo-CRMFIL] (cyclo(CRMFIL)) | 0.6746 | 20 ± 4 | – | –
CSCC[C@@H]1NC(=O)[C@H](CCCNC(=N)N)NC(=O)[C@H](CS)NC(=O)[C@H](CC(C)C)NC(=O)[C@H](C(C)C)NC(=O)[C@H](Cc2ccc(O)cc2)NC1=O [CRMYVL, cyclo-CRMYVL] (cyclo(CRMYVL)) | – | 58 ± 17 | – | –
CC[C@H](C)[C@@H]1NC(=O)[C@H](CCCNC(=N)N)NC(=O)[C@H](CCCNC(=N)N)NC(=O)[C@H](CS)NC(=O)[C@H](CC(C)C)NC(=O)[C@H]([C@@H](C)CC)NC1=O [CRRIIL, cyclo-CRRIIL] (cyclo(CRRIIL)) | 0.9912 | 8 ± 1 | – | –
CC(C)C[C@@H]1NC(=O)[C@H](C(C)C)NC(=O)[C@H](Cc2ccccc2)NC(=O)[C@H](CO)NC(=O)[C@H](CCCNC(=N)N)NC(=O)[C@H](CS)NC1=O [CRSFVL] (cyclo(CRSFVL)) | 0.6155 | – | – | –
CC[C@H](C)[C@@H]1NC(=O)[C@H]([C@@H](C)O)NC(=O)[C@H](CCCNC(=N)N)NC(=O)[C@H](CS)NC(=O)[C@H](CC(C)C)NC(=O)[C@H](C(C)C)NC1=O [CRTIVL, cyclo-CRTIVL] (cyclo(CRTIVL)) | 3.427 | > 250 | – | –
CC[C@H](C)[C@@H]1NC(=O)[C@H](Cc2ccc(O)cc2)NC(=O)[C@H]([C@@H](C)O)NC(=O)[C@H](CCCNC(=N)N)NC(=O)[C@H](CS)NC(=O)[C@H](CC(C)C)NC1=O [CRTYIL, cyclo-CRTYIL] (cyclo(CRTYIL)) | 15.78 | 24 ± 1 | – | –
CC(C)C[C@@H]1NC(=O)[C@H](CC(C)C)NC(=O)[C@H](Cc2ccccc2)NC(=O)[C@H](C(C)C)NC(=O)[C@H](CCCNC(=N)N)NC(=O)[C@H](CS)NC1=O [CRVFLL] (cyclo(CRVFLL)) | 0.6625 | – | – | –
CC(C)C[C@@H]1NC(=O)[C@H](C(C)C)NC(=O)[C@H](CC(C)C)NC(=O)[C@H](C(C)C)NC(=O)[C@H](CCCNC(=N)N)NC(=O)[C@H](CS)NC1=O [CRVLVL, cyclo-CRVLVL] (cyclo(CRVLVL)) | 0.8272 | 201 ± 16 | – | –
CC[C@H](C)[C@@H]1NC(=O)[C@H](Cc2ccc(O)cc2)NC(=O)[C@H](C(C)C)NC(=O)[C@H](CCCNC(=N)N)NC(=O)[C@H](CS)NC(=O)[C@H](CC(C)C)NC1=O [CRVYIL, cyclo-CRVYIL] (cyclo(CRVYIL)) | 1.306 | 31 ± 6 | – | –
CC[C@H](C)[C@@H]1NC(=O)[C@H](CC(C)C)NC(=O)[C@H](Cc2ccc(O)cc2)NC(=O)[C@H](CCCNC(=N)N)NC(=O)[C@H](CS)NC(=O)[C@H](CC(C)C)NC1=O [CRYLIL, cyclo-CRYLIL] (cyclo(CRYLIL)) | 0.6083 | 20 ± 2 | – | –
CC(C)C[C@@H]1NC(=O)[C@H](C(C)C)NC(=O)[C@H](Cc2ccc(O)cc2)NC(=O)[C@H](Cc2ccc(O)cc2)NC(=O)[C@H](CCCNC(=N)N)NC(=O)[C@H](CS)NC1=O [CRYYVL, cyclo-CRYYVL] (cyclo(CRYYVL)) | 0.6784 | 59 ± 7 | – | –
CC(C)C[C@@H]1NC(=O)[C@H](Cc2c[nH]c3ccccc23)NC(=O)[C@H](C(C)C)NC(=O)[C@H](CO)NC(=O)[C@H](CS)NC(=O)[C@H](Cc2ccc(O)cc2)NC1=O [CSVWLY, cyclo-CSVWLY] (cyclo(CSVWLY)) | 2.022 | 103 ± 28 | – | –
CC[C@H](C)[C@@H]1NC(=O)[C@H](CCCNC(=N)N)NC(=O)[C@H](CCSC)NC(=O)[C@H](C(C)C)NC(=O)[C@H](CS)NC(=O)[C@H](C)NC1=O [CVMRIA, cyclo-CVMRIA] (cyclo(ACVMRI)) | 0.6968 | 168 ± 40 | – | –
cyclo-CVTYVL | 3.732 | – | – | –
